From patent US8435978B2, “Substituted sulfonamide compounds” (Gruenenthal GmbH, priority 2006, dated 2013)

Target: T1, human B1R receptor (Homo sapiens, UniProt P46663)
T1 construct: host or cells: CHO K1 cells (Chinese hamster ovary), stably transfected
T1 sequence (P46663 1-353): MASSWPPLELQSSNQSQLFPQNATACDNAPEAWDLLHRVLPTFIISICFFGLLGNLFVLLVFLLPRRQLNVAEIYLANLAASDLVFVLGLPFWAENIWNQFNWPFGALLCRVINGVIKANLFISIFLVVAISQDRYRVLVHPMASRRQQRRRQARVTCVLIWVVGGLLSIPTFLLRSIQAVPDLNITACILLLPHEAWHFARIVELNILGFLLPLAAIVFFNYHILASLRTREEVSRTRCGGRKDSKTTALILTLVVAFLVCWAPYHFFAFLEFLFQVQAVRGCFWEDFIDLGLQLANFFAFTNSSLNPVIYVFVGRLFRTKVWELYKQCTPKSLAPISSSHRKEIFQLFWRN
Experiment: Functional study on the bradykinin receptor 1 (B1R), FLIPR Ca2+ assay, hB1R cells
Type: cell-based
Conditions: test substance 10 μM; hB1R CHO K1 cells; agonist Lys-Des-Arg9-bradykinin 0.5 nM; % inhibition compared with the maximum achievable inhibition
How it was run: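 Readout: peak Fluo-4 Ca2+ fluorescence, FLIPR. Stable CHO K1 hB1R or rB1R cells; cpd 10 μM, 10 min preincubation, then agonist (hB1R: Lys-Des-Arg9-BK 0.5 nM; rB1R: Des-Arg9-BK 100 nM). Value = % inhibition relative to maximal achievable inhibition.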

## COc1cc(C)c(S(=O)(=O)N2CCCCC2COCC(=O)N2CCN(C3CCN(C)CC3)CC2)c(C)c1 (stereo not shown) [Example 8, 2-[1-(4-methoxy-2,6-dimethyl-phenylsulfonyl)-piperidin-2-ylmethoxy]-1-[4-(1-methyl-piperidin-4-yl)-piperazin-1-yl]-ethanone]
  B1R Antagonism, human [10 μM] % Inhibition: 101.66%
